According to patent publication US20140357713A1, “ANTIMICROBIAL COMPOUNDS AND METHODS OF USE” (NexMed Holdings, Inc., priority 2012, published 2014):
Counter-ions that a name gives are not always drawn. Like-named read-outs stand apart in the source and are kept apart here.

Experiments:
[1] = system: Candida albicans (ATCC 90029); assay: Minimum inhibitory concentration (MIC) assay, Example 33; format: cell-based
Procedure: (§1) Thirty compounds were tested for antimicrobial activity using standard procedures and standard strains for both the minimum inhibitory concentration (MIC) assay and a time kill study. Both the MIC assay and the time kill study were performed according to Clinical and Laboratory Standards Institute (CLSI) guidelines. Three bacteria strains, Escherichia coli (ATCC 25922), Pseudomonas aeruginosa (ATCC 27853), Staphulococcus aureus (ATCC 29213), and two fungus strains, Candida albicans (ATCC 90029) and Aspergillus niger (CMCC 98003), were used in the experiments.
(§2) Preparation of cultures. Before the experiment, two days for the bacteria strains and five days for fungus strains, an aliquot was removed from the cultures frozen at −80° C. Medium was added to the surface of an appropriate agar plate and streaked with the aliquot. The plate was incubated for 20 to 24 hrs at 35±2° C. for bacteria or for 5 days at 26-30° C. in incubator for fungus. From the resulting growth on each plate, one isolated colony of similar morphology was selected and re-streaked onto a fresh agar plate using a sterile disposable loop. The plate was incubated 20 to 24 hrs at 35±2° C. or for 5 days at 26-30° C. in an incubator.
(§3) Preparation of Assay Plates with Medium and Drugs. On the day of the assay, CAMHB medium or RPMI 1640 medium was removed from 4′C storage and allowed to reach room temperature. Ninety microliters (μL) of room temperature CAMHB or RPMI 1640 (supplemented with the appropriate concentration of DMSO, if required) were added to rows B-G of each 96-well microtiter plate. Using a pipette, duplicate 180 μL aliquots of each drug stock solution were added to column 1 (e.g. A1 and B1 or C1 and D1 or E1 and F1 or G1 and H1). Using a multichannel pipette or the Provision 2000 liquid handler, serial 2-fold dilutions (90 μL) were performed in each row across the plate to row G. Eighty μL of compounds dilutions were transferred to a 96-deep well plate. Medium, 1,520 μL of CAMHB or RPMI 1640, was added to each well. The contents of the wells were mixed thoroughly. A 50 μL aliquot of each of the resulting mixtures was transferred to a 96-well assay plate.
For Candida albicans, a sterile inoculating loop was used to transfer growth from an agar plate culture into a tube with RPMI1640 medium. This inoculum was adjusted so that its density at 530 nm was in the ranges from 0.08 to 0.13. The resulting suspension was diluted 1:50 and further diluted 1:20 with the medium to obtain two times test inoculums.
(§4) For Aspergillus niger, sporulating colonies were covered with RPMI 1640, and a suspension was prepared by gently probing the colonies with the tip of a transfer pipette. The suspension was transferred to a sterile tube and mixed with a vortex mixer for 15 seconds. The densities at 530 nm were adjusted to 0.09-0.13 for each sample. The resulting suspension was diluted 1:50 with the medium to obtain two times test inoculums. Fifty μL/well of this inoculum suspension was added to wells of drug-containing plates (1:2 dilution). Plates were incubated at 35° C. for the appropriate times. The MIC was read and recorded according to CLSI guidelines.
(§5) The MIC values for thirty compounds against Escherichia coli, Pseudomonas aeruginosa, Staphulococcus aureus, Candida albicans, and Aspergillus niger were recorded and are presented in Table 3 and Table 4.

[2] = system: Escherichia coli (ATCC 25922); assay: as above; format: cell-based
Procedure: as §1, §2, §3
(§6) For bacteria, a sterile inoculating loop was used to transfer growth from an agar plate culture into about 5 mL of test medium. Using a turbidity meter, this inoculum was adjusted so that its density (600 nm) was equivalent to a 0.5 McFarland barium sulfate standard (0.08-0.13). The resulting suspension was diluted 1:100 into medium to obtain two times test inoculums.
as §4, §5

[3] = system: Pseudomonas aeruginosa (ATCC 27853); assay: as above; format: cell-based; details: for MIC: Table 19 summary
Procedure: as §1, §2, §3, §6, §4, §5

[4] = system: Aspergillus niger (CMCC 98003); assay: as above; format: cell-based
Procedure: as §1, §2, §3, §4, §5

[5] = system: Staphulococcus aureus (ATCC 29213); assay: as above; format: cell-based, Staphylococcus aureus
Procedure: as §1, §2, §3, §6, §4, §5

pH (Table 1) = format: physicochemical
[6] = system: Staphylococcus aureus (ATCC 29213); assay: Time kill study, Example 33 (0 to 5 min); format: cell-based; details: 1×MIC
Procedure: as §1
(§7) The viable counts in Log10 CFU/mL at each time point were recorded.
(§8) Time kill studies. Strain suspensions were prepared as described above for the MIC test, and strain suspensions and compound solutions were mixed in the same volume. Samples were removed at specified times including 0 min, 30 sec, 1 min and 5 mins, were diluted in the test medium and streaked on agar. Colonies were counted after 24 to 48 hrs of incubation. […]

[7] = system: Candida albicans (ATCC 90029); assay: Time kill study, Example 33 (0 to 5 min); format: cell-based; details: 1×MIC
Procedure: as §1, §7, §8

[8] = system: Escherichia coli (ATCC 25922); assay: Time kill study, Example 33 (0 to 5 min); format: cell-based; details: 1×MIC, sulfate
Procedure: as §1, §7, §8

[9] = system: Pseudomonas aeruginosa (ATCC 27853); assay: Time kill study, Example 33 (0 to 5 min); format: cell-based; details: 1×MIC
Procedure: as §1, §7, §8

CCCCCCCCCCCCOC(=O)C(C)N(C)C (centres unmarked) [Nex-03, Dodecyl 2-(dimethylamino)propanoate sulfate]
MIC Candida albicans ([1]; n = 1, sulfate): 12500 µg/mL
MIC Candida albicans ([1]; n = 2, sulfate): 6250 µg/mL
MIC ([2]; Table 19 summary of Example 33 and Example 35, sulfate): 1560 µg/mL
MIC E. coli ([2]; n = 1, sulfate): 1560 µg/mL
MIC E. coli ([2]; n = 2, sulfate): 1560 µg/mL
MIC ([3]; sulfate): 3130 µg/mL
MIC P. aeruginosa ([3]; n = 1, sulfate): 3130 µg/mL
MIC P. aeruginosa ([3]; n = 2, sulfate): 3130 µg/mL
MIC ([4]; Aspergillus niger, CMCC98003, n = 1, read-out: MIC Aspergillus niger): > 12500 µg/mL
MIC ([4]; Aspergillus niger, CMCC98003, n = 2, read-out: MIC Aspergillus niger): > 12500 µg/mL
MIC ([4]; Table 19 summary, sulfate): >12500 µg/mL
MIC ([5]; Table 19 summary, sulfate): 1560 µg/mL
MIC S. aureus ([5]; n = 1, sulfate): 1560 µg/mL
MIC S. aureus ([5]; n = 2, sulfate): 1560 µg/mL
pH (pH (Table 1); sulfate): 1.60
Viable counts, Staphylococcus aureus time kill study ([6]; 0.5 min, sulfate): 6.1 Log10 CFU/mL
Viable counts, Staphylococcus aureus time kill study ([6]; 1 min, sulfate): 6.12 Log10 CFU/mL
Viable counts, Staphylococcus aureus time kill study ([6]; 5 min, sulfate): 6.11 Log10 CFU/mL
Viable counts, Staphylococcus aureus time kill study ([6]; time 0, sulfate): 6.11 Log10 CFU/mL
Viable counts, Candida albicans time kill study ([7]; 0.5 min, sulfate): 5.53 Log10 CFU/mL
Viable counts, Candida albicans time kill study ([7]; 1 min, sulfate): 5.54 Log10 CFU/mL
Viable counts, Candida albicans time kill study ([7]; 5 min, sulfate): 5.52 Log10 CFU/mL
Viable counts, Candida albicans time kill study ([7]; time 0, sulfate): 5.6 Log10 CFU/mL
Viable counts, Escherichia coli time kill study ([8]; 0.5 min): 4.90 Log10 CFU/mL
Viable counts, Escherichia coli time kill study ([8]; 1 min): 4.18 Log10 CFU/mL
Viable counts, Escherichia coli time kill study ([8]; 5 min): 3.82 Log10 CFU/mL
Viable counts, Escherichia coli time kill study ([8]; time 0): 4.92 Log10 CFU/mL
Viable counts, Pseudomonas aeruginosa time kill study ([9]; 0.5 min, sulfate): <4.0 Log10 CFU/mL
Viable counts, Pseudomonas aeruginosa time kill study ([9]; 1 min, sulfate): <3.70 Log10 CFU/mL
Viable counts, Pseudomonas aeruginosa time kill study ([9]; 5 min): <3.52 Log10 CFU/mL
Viable counts, Pseudomonas aeruginosa time kill study ([9]; time 0, sulfate): 5.6 Log10 CFU/mL

CCCCCCCCCCCCOC(=O)C(C)N(C)C (centres unmarked) [Nex-15, Dodecyl 2-(dimethylamino)propanoate phosphate]
MIC ([1]; Table 19 summary, phosphate): 50 µg/mL
MIC Candida albicans ([1]; n = 1, phosphate): 50 µg/mL
MIC Candida albicans ([1]; n = 2, phosphate): 50 µg/mL
MIC (mg/ml) ([2]; Table 19 summary of Example 33 and Example 35, phosphate): ≧12.5 mg/ml
MIC E. coli ([2]; n = 1, phosphate): >12500 µg/mL
MIC E. coli ([2]; n = 2, phosphate): >12500 µg/mL
MIC ([3]; phosphate): >12500 µg/mL
MIC P. aeruginosa ([3]; n = 1, phosphate): >12500 µg/mL
MIC P. aeruginosa ([3]; n = 2, phosphate): >12500 µg/mL
MIC ([4]; Table 19 summary, phosphate): 12500 µg/mL
MIC Aspergillus niger ([4]; n = 1, phosphate): 12500 µg/mL
MIC S. aureus ([5]; n = 1, phosphate): 390 µg/mL
MIC S. aureus ([5]; n = 2, phosphate): 200 µg/mL
pH (pH (Table 1); phosphate): 2.01
Viable counts, Staphylococcus aureus time kill study ([6]; 0.5 min, phosphate): 6.16 Log10 CFU/mL
Viable counts, Staphylococcus aureus time kill study ([6]; 1 min, phosphate): 6.14 Log10 CFU/mL
Viable counts, Staphylococcus aureus time kill study ([6]; 5 min, phosphate): 6.14 Log10 CFU/mL
Viable counts, Staphylococcus aureus time kill study ([6]; time 0, phosphate): 6.23 Log10 CFU/mL
Viable counts, Candida albicans time kill study ([7]; 0.5 min, phosphate): 5.23 Log10 CFU/mL
Viable counts, Candida albicans time kill study ([7]; 1 min, phosphate): 5.25 Log10 CFU/mL
Viable counts, Candida albicans time kill study ([7]; 5 min, phosphate): 5.28 Log10 CFU/mL
Viable counts, Candida albicans time kill study ([7]; time 0, phosphate): 5.12 Log10 CFU/mL
